Measurements taken from the RepoRT retention time repository (doi:10.1016/j.jchromb.2020.122105).

Assays:
Settings in all cases: stereoisomer not certain
[1] = RP, Waters CORTECS T3, 100 × 2.1 mm, 2.7 µm, 0.3 mL/min, estimated dead time 0.73 min; A: water + 0.1% formic acid, pH 3; B: methanol + 0.1% formic acid, pH 3; gradient (min/%B) 0/5 5/5 25/100 30/100 30.1/5 35/5
[2] = RP, Waters CORTECS T3, 100 × 2.1 mm, 2.7 µm, 0.3 mL/min, estimated dead time 0.73 min; A: water + 0.1% formic acid, pH 3; B: methanol + 0.1% formic acid, pH 3; gradient (min/%B) 0/0 5/0 25/100 30/100 30.1/0 35/0
[3] = RP, Waters CORTECS T3, 100 × 2.1 mm, 2.7 µm, 0.2 mL/min, estimated dead time 1.1 min; A: water + 0.1% formic acid, pH 3; B: methanol + 0.1% formic acid, pH 3; gradient (min/%B) 0/0 1/0 6/5 30/100 35/100 35.1/0 40/0
[4] = RP, Waters CORTECS T3, 100 × 2.1 mm, 2.7 µm, 0.1 mL/min, estimated dead time 2.2 min; A: water + 0.1% formic acid, pH 3; B: methanol + 0.1% formic acid, pH 3; gradient (min/%B) 0/0 1/0 6/5 30/100 35/100 35.1/0 40/0
[5] = RP, Waters CORTECS T3, 100 × 2.1 mm, 2.7 µm, 0.15 mL/min, estimated dead time 1.5 min; A: water + 0.1% formic acid, pH 3; B: methanol + 0.1% formic acid, pH 3; gradient (min/%B) 0/0 1/0 6/5 30/100 35/100 35.1/0 40/0
[6] = RP, Waters CORTECS T3, 100 × 2.1 mm, 2.7 µm, 0.3 mL/min, estimated dead time 0.73 min; A: water + 0.1% formic acid, pH 3; B: methanol + 0.1% formic acid, pH 3; gradient (min/%B) 0/0 1/0 6/5 30/100 35/100 35.1/0 40/0
[7] = RP, Waters CORTECS T3, 100 × 2.1 mm, 2.7 µm, 0.25 mL/min, estimated dead time 0.88 min; A: water + 0.1% formic acid, pH 3; B: methanol + 0.1% formic acid, pH 3; gradient (min/%B) 0/0 1/0 6/5 30/100 35/100 35.1/0 40/0
[8] = RP, Waters CORTECS T3, 100 × 2.1 mm, 2.7 µm, 0.1 mL/min, estimated dead time 2.2 min; A: water + 0.1% formic acid, pH 3; B: methanol + 0.1% formic acid, pH 3; gradient (min/%B) 0/5 5/5 25/95 25.1/100 35/100 35.1/5 45/5
[9] = RP, Waters CORTECS T3, 100 × 2.1 mm, 2.7 µm, 0.3 mL/min, estimated dead time 0.73 min; A: water + 0.1% formic acid, pH 3; B: methanol + 0.1% formic acid, pH 3; gradient (min/%B) 0/5 5/5 25/95 25.1/100 35/100 35.1/5 45/5
[10] = RP, Waters ACQUITY UPLC BEH C18, 100 × 2.1 mm, 1.7 µm, 0.1 mL/min, estimated dead time 2.2 min; A: water + 0.1% formic acid, pH 3; B: methanol + 0.1% formic acid, pH 3; gradient (min/%B) 0/5 5/5 25/100 30/100 30.1/5 35/5
[11] = RP, Waters CORTECS T3, 100 × 2.1 mm, 2.7 µm, 0.2 mL/min, estimated dead time 1.1 min; A: water + 0.045% formic acid + 0.11% ammonium hydroxide, pH 7; B: methanol; gradient (min/%B) 0/5 5/5 25/95 25.1/100 35/100 35.1/5 45/5
[12] = RP, Waters ACQUITY UPLC BEH C18, 100 × 2.1 mm, 1.7 µm, 0.1 mL/min, estimated dead time 2.2 min; A: water + 0.1% formic acid, pH 3; B: methanol + 0.1% formic acid, pH 3; gradient (min/%B) 0/5 5/5 25/95 25.1/100 35/100 35.1/5 45/5
[13] = as above; remark: listed apart in the source
[14] = RP, Waters ACQUITY UPLC BEH C18, 100 × 2.1 mm, 1.7 µm, 0.1 mL/min, estimated dead time 2.2 min; A: water + 0.045% formic acid + 0.11% ammonium hydroxide, pH 7; B: methanol; gradient (min/%B) 0/5 5/5 25/95 25.1/100 35/100 35.1/5 45/5
[15] = RP, Waters ACQUITY UPLC BEH C18, 100 × 2.1 mm, 1.7 µm, 0.2 mL/min, estimated dead time 1.1 min; A: water + 0.025% formic acid + 20 mM ammonium acetate + 0.055% ammonium hydroxide, pH 7; B: methanol; gradient (min/%B) 0/5 5/5 25/100 30/100 30.1/5 35/5
[16] = HILIC, Waters XBridge BEH Amide, 100 × 2.1 mm, 2.5 µm, 0.5 mL/min, estimated dead time 0.44 min; A: water + 0.1% acetic acid + 10 mM ammonium acetate, pH 4; B: 5% water + 95% acetonitrile + 0.1% acetic acid + 10 mM ammonium acetate, pH 4; gradient (min/%B) 0/95 5/95 20/57 25/57 30/95 40/95
[17] = RP, Thermo Scientific Hypercarb, 150 × 2.1 mm, 5 µm, 0.1 mL/min, estimated dead time 3.3 min; A: water + 0.1% formic acid, pH 3; B: methanol + 0.1% formic acid, pH 3; gradient (min/%B) 0/5 5/5 20/100 35/100 35.1/5 45/5

Row | SMILES | LC retention time [1] | LC retention time [2] | LC retention time [3] | LC retention time [4] | LC retention time [5] | LC retention time [6] | LC retention time [7] | LC retention time [8] | LC retention time [9] | LC retention time [10] | LC retention time [11] | LC retention time [12] | LC retention time [13] | LC retention time [14] | LC retention time [15] | LC retention time [16] | LC retention time [17]
1 | Cc1cc2nc[nH]c2cc1C [DIMETHYLBENZIMIDAZOLE] | 10.4 min | 11.4 min | 13.4 min | 11.8 min | 14.7 min | 12 min | 12.6 min | 15.1 min | 10.5 min | 15.2 min | 16.5 min | 15.7 min | 15.6 min | 20.5 min | 16.6 min | 0.65 min | 
2 | CC12CCC(=O)C=C1CCC1C2C(O)CC2(C)C1CCC2(O)C(=O)CO (stereo unspecified) [CORTISOL] | 16.7 min | 17.3 min | 20.8 min | 18.5 min | 22 min | 19.4 min | 20 min | 21.6 min | 17.2 min | 21.1 min | 18.5 min | 21.6 min | 21.6 min | 21.6 min | 18.1 min |  | 
3 | CC1C(=O)Nc2ccccc21 (stereo unspecified) [3-METHYL-2-OXINDOLE] | 13.3 min | 14.2 min | 17 min | 15.2 min | 18.4 min |  | 16.1 min | 18.8 min | 13.6 min | 18.9 min | 15.2 min | 19.2 min | 19.2 min | 19.2 min |  |  | 32.3 min
4 | OCCc1c[nH]c2ccccc12 [INDOLE-3-ETHANOL] | 12.7 min | 13.6 min | 16.2 min | 14.5 min | 17.7 min | 14.6 min | 15.3 min | 18 min | 12.9 min | 18.2 min | 14.5 min | 18.5 min | 18.5 min | 18.5 min | 14.7 min |  | 
5 | CC(=O)OCC(=O)C1CCC2C3CCC4=CC(=O)CCC4(C)C3CCC12C (stereo unspecified) [DEOXYCORTICOSTERONE ACETATE] | 20.4 min | 20.8 min | 25.2 min | 22.4 min | 26.3 min | 23.8 min | 24.4 min | 25.4 min | 21.1 min | 24.5 min | 22.4 min | 25.3 min | 25.3 min | 25.3 min | 21.6 min |  | 
6 | CCCCCCCCCCCC(=O)OC(CC(=O)[O-])C[N+](C)(C)C (stereo unspecified) [LAUROYLCARNITINE] | 20 min | 20.3 min | 24.7 min | 21.8 min | 25.7 min | 23.4 min | 23.9 min | 24.5 min | 20.6 min | 24.5 min | 22.8 min | 25.8 min | 25.7 min | 26.6 min | 22.8 min |  | 28.5 min
7 | CSc1ncnc2nc[nH]c12 [THIOPURINE S-METHYLETHER] | 9.81 min | 11 min | 12.9 min | 11.4 min | 14.4 min | 11.4 min | 12.1 min | 15.1 min | 9.92 min | 15.1 min | 11.7 min | 15.2 min | 15.2 min | 15.3 min | 11.7 min |  | 
8 | CC12CCC(=O)C=C1CCC1C2C(=O)CC2(C)C1CCC2(O)C(=O)CO (stereo unspecified) [CORTISONE] | 16.3 min | 16.9 min | 20.2 min | 18 min | 21.4 min | 18.9 min | 19.5 min | 21 min | 16.7 min | 20.5 min | 18 min | 21 min | 21 min | 21 min | 17.6 min |  | 
